Measured values from ChEMBL document CHEMBL1177732, “Triterpene saponins from Clematis chinensis and their potential anti-inflammatory activity” (J Nat Prod, 2010).

Assays:
[1] = target: T1, Prostaglandin G/H synthase 2 (Homo sapiens, UniProt P35354); experiment: Inhibition of COX2 by microplate reader
T1 sequence (P35354 whole entry): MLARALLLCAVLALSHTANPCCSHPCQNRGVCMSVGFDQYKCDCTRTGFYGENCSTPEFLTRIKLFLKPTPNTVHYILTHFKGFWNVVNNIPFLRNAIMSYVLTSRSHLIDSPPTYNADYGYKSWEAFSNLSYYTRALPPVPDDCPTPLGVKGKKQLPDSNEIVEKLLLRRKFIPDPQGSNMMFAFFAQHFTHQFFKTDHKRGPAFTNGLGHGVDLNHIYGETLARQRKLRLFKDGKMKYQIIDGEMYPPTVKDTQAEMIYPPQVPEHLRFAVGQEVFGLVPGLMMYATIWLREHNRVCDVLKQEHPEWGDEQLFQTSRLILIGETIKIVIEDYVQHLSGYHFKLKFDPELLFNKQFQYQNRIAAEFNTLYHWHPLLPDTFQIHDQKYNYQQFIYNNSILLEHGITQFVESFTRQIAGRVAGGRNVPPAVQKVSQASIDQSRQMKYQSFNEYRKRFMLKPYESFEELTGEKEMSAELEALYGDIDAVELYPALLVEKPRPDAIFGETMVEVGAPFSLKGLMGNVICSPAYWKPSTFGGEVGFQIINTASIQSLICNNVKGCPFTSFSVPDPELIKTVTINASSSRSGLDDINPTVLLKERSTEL

[2] = target: Prostaglandin G/H synthase 1 (Homo sapiens, UniProt P23219); experiment: Inhibition of COX1 by microplate reader
Sequence of Prostaglandin G/H synthase 1 (P23219 whole entry): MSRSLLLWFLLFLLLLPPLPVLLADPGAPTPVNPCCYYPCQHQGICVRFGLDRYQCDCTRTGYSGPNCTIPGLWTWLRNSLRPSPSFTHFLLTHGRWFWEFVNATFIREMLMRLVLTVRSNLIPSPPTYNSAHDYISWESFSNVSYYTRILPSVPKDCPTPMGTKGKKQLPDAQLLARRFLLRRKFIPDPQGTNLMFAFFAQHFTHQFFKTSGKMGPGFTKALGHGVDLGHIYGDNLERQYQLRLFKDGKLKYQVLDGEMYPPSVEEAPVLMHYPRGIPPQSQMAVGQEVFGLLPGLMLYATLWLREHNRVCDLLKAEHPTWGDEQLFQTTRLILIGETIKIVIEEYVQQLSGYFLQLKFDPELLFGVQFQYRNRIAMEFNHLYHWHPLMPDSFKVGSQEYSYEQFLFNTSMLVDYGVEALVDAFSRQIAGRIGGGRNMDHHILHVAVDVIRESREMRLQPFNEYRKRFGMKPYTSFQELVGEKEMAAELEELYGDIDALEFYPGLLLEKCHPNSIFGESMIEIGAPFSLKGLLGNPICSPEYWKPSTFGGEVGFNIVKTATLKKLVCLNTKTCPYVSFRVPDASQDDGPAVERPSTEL

| Structure (SMILES) | IC50 [1] | IC50 [2] |
| --- | --- | --- |
| COc1ccc(/C=C/C(=O)O[C@H]2[C@H](O[C@H]3[C@H](O)[C@@H](O)[C@H](O[C@@H]4CO[C@@H](O[C@@H]5[C@@H](O)[C@H](C)O[C@@H](O[C@H]6[C@H](O[C@H]7CC[C@@]8(C)[C@@H](CC[C@]9(C)[C@@H]8CC=C8[C@@H]%10CC(C)(C)CC[C@]%10(C(=O)O[C@@H]%10O[C@H](CO[C@@H]%11O[C@H](CO)[C@@H](O[C@@H]%12O[C@@H](C)[C@H](O)[C@@H](O)[C@H]%12O)[C@H](O)[C@H]%11O)[C@@H](O)[C@H](O)[C@H]%10O)CC[C@]89C)[C@]7(C)CO)OC[C@@H](O)[C@@H]6O)[C@@H]5O)[C@H](O)[C@@H]4O)O[C@@H]3CO)O[C@H](CO)[C@@H](O)[C@@H]2O[C@@H]2O[C@H](CO)[C@@H](O)[C@H](O)[C@H]2O)cc1O [CLEMATOCHINENOSIDE G] | 8.9 µM | 7.5 µM |
| COc1ccc(/C=C/C(=O)O[C@@H]2[C@@H](O)[C@H](O[C@H]3[C@H](O)[C@@H](O)[C@H](O[C@@H]4CO[C@@H](O[C@@H]5[C@@H](O)[C@H](C)O[C@@H](O[C@H]6[C@H](O[C@H]7CC[C@]8(C)[C@H]9CC=C%10[C@@H]%11CC(C)(C)CC[C@]%11(C(=O)O[C@@H]%11O[C@H](CO[C@@H]%12O[C@H](CO)[C@@H](O[C@@H]%13O[C@@H](C)[C@H](O)[C@@H](O)[C@H]%13O)[C@H](O)[C@H]%12O)[C@@H](O)[C@H](O)[C@H]%11O)CC[C@@]%10(C)[C@]9(C)CC[C@H]8C7(C)C)OC[C@H](O)[C@@H]6O)[C@@H]5O)[C@H](O)[C@@H]4O)O[C@@H]3CO)O[C@H](CO)[C@H]2O)cc1O [CLEMATERNOSIDE B] | 7.6 µM | 8 µM |
| COc1ccc(/C=C/C(=O)O[C@H]2[C@H](O[C@H]3[C@H](O)[C@@H](O)[C@H](O[C@@H]4CO[C@@H](O[C@@H]5[C@@H](O)[C@H](C)O[C@@H](O[C@H]6[C@H](O[C@H]7CC[C@@]8(C)[C@@H](CC[C@]9(C)[C@@H]8CC=C8[C@@H]%10CC(C)(C)CC[C@]%10(C(=O)O[C@@H]%10O[C@H](CO[C@@H]%11O[C@H](CO)[C@@H](O[C@@H]%12O[C@@H](C)[C@H](O)[C@@H](O)[C@H]%12O)[C@H](O)[C@H]%11O)[C@@H](O)[C@H](O)[C@H]%10O)CC[C@]89C)[C@]7(C)CO)OC[C@H](O)[C@@H]6O)[C@@H]5O)[C@H](O)[C@@H]4O)O[C@@H]3CO)O[C@H](CO)[C@@H](O)[C@@H]2O[C@@H]2O[C@H](CO[C@@H]3O[C@@H](C)[C@H](O)[C@@H](O)[C@H]3O)[C@@H](O)[C@H](O)[C@H]2O)cc1O [CLEMATERNOSIDE D] | 9 µM | 8.8 µM |
| C[C@@H]1O[C@@H](O[C@H]2[C@H](O)[C@@H](O)[C@H](OC[C@H]3O[C@@H](OC(=O)[C@]45CCC(C)(C)C[C@H]4C4=CC[C@@H]6[C@@]7(C)CC[C@H](O[C@@H]8OC[C@H](O)[C@H](O)[C@H]8O[C@@H]8O[C@@H](C)[C@H](O)[C@@H](O[C@@H]9OC[C@@H](O)[C@@H](O)[C@H]9O)[C@H]8O)[C@@](C)(CO)[C@@H]7CC[C@@]6(C)[C@]4(C)CC5)[C@H](O)[C@@H](O)[C@@H]3O)O[C@@H]2CO)[C@H](O)[C@H](O)[C@H]1O [HUZHANGOSIDE D] | > 50 µM | > 50 µM |
| C[C@@H]1O[C@@H](O[C@H]2[C@H](O)[C@@H](O)[C@H](OC[C@H]3O[C@@H](OC(=O)[C@]45CCC(C)(C)C[C@H]4C4=CC[C@@H]6[C@@]7(C)CC[C@H](O[C@@H]8OC[C@H](O)[C@H](O)[C@H]8O[C@@H]8O[C@@H](C)[C@H](O)[C@@H](O[C@@H]9OC[C@@H](O[C@@H]%10O[C@H](CO)[C@@H](O)[C@H](O)[C@H]%10O)[C@@H](O)[C@H]9O)[C@H]8O)[C@@](C)(CO)[C@@H]7CC[C@@]6(C)[C@]4(C)CC5)[C@H](O)[C@@H](O)[C@@H]3O)O[C@@H]2CO)[C@H](O)[C@H](O)[C@H]1O [CLEMATICHINENOSIDE B] | > 50 µM | > 50 µM |
| COc1ccc(/C=C/C(=O)O[C@@H]2[C@@H](O)[C@H](O[C@H]3[C@H](O)[C@@H](O)[C@H](O[C@@H]4CO[C@@H](O[C@@H]5[C@@H](O)[C@H](C)O[C@@H](O[C@H]6[C@H](O[C@H]7CC[C@@]8(C)[C@@H](CC[C@]9(C)[C@@H]8CC=C8[C@@H]%10CC(C)(C)CC[C@]%10(C(=O)O[C@@H]%10O[C@H](CO[C@@H]%11O[C@H](CO)[C@@H](O[C@@H]%12O[C@@H](C)[C@H](O)[C@@H](O)[C@H]%12O)[C@H](O)[C@H]%11O)[C@@H](O)[C@H](O)[C@H]%10O)CC[C@]89C)[C@]7(C)CO)OC[C@@H](O)[C@@H]6O)[C@@H]5O)[C@H](O)[C@@H]4O)O[C@@H]3CO)O[C@H](CO)[C@H]2O)cc1O [CLEMATOCHINENOSIDE D] | 7.8 µM | 8.8 µM |
| C[C@@H]1O[C@@H](O[C@H]2[C@H](O)[C@@H](O)[C@H](OC[C@H]3O[C@@H](OC(=O)[C@]45CCC(C)(C)C[C@H]4C4=CC[C@@H]6[C@@]7(C)CC[C@H](O)[C@@](C)(CO)[C@@H]7CC[C@@]6(C)[C@]4(C)CC5)[C@H](O)[C@@H](O)[C@@H]3O)O[C@@H]2CO)[C@H](O)[C@H](O)[C@H]1O [KIZUTA CIRENSENOSIDE O SAPONIN K3] | > 50 µM | > 50 µM |
| C[C@@H]1O[C@@H](O[C@H]2[C@H](O)[C@@H](O)[C@H](OC[C@H]3O[C@@H](OC(=O)[C@]45CCC(C)(C)C[C@H]4C4=CC[C@@H]6[C@@]7(C)CC[C@H](O)C(C)(C)[C@@H]7CC[C@@]6(C)[C@]4(C)CC5)[C@H](O)[C@@H](O)[C@@H]3O)O[C@@H]2CO)[C@H](O)[C@H](O)[C@H]1O [CIRENSENOSIDE O] | > 50 µM | > 50 µM |
| COc1ccc(/C=C/C(=O)O[C@H]2[C@H](O[C@H]3[C@H](O)[C@@H](O)[C@H](O[C@@H]4CO[C@@H](O[C@@H]5[C@@H](O)[C@H](C)O[C@@H](O[C@H]6[C@H](O[C@H]7CC[C@]8(C)[C@H]9CC=C%10[C@@H]%11CC(C)(C)CC[C@]%11(C(=O)O[C@@H]%11O[C@H](CO[C@@H]%12O[C@H](CO)[C@@H](O[C@@H]%13O[C@@H](C)[C@H](O)[C@@H](O)[C@H]%13O)[C@H](O)[C@H]%12O)[C@@H](O)[C@H](O)[C@H]%11O)CC[C@@]%10(C)[C@]9(C)CC[C@H]8C7(C)C)OC[C@H](O)[C@@H]6O)[C@@H]5O)[C@H](O)[C@@H]4O)O[C@@H]3CO)O[C@H](CO)[C@@H](O)[C@@H]2O)cc1O [CLEMATERNOSIDE C] | 8.8 µM | 7.6 µM |
| C[C@@H]1O[C@@H](O[C@H]2[C@H](O[C@H]3CC[C@]4(C)[C@H]5CC=C6[C@@H]7CC(C)(C)CC[C@]7(C(=O)O[C@@H]7O[C@H](CO[C@@H]8O[C@H](CO)[C@@H](O[C@@H]9O[C@@H](C)[C@H](O)[C@@H](O)[C@H]9O)[C@H](O)[C@H]8O)[C@@H](O)[C@H](O)[C@H]7O)CC[C@@]6(C)[C@]5(C)CC[C@H]4C3(C)C)OC[C@H](O)[C@@H]2O)[C@H](O)[C@H](O)[C@H]1O [HEDERASAPONIN B] | > 50 µM | > 50 µM |
